Assay results reported in US20260022142A1, “MACROCYCLIC IMMUNOMODULATORS” (Bristol-Myers Squibb Company, priority 2022, published 2026).
Numbered stars: 1 amine (or outer) side, 2 acyl side, 3 side chain; on linkers, the order of the positions; unused ones are H or OH. Bridge positions count the residues as written; N and C are the ends. Square brackets hold non-standard residues; d marks the D form. Peptide text beside a SMILES is read from it. * marks the point of attachment. Phe(4-COOH) = N[C@@H](Cc1ccc(C(=O)O)cc1)C(=O)O; Bip = N[C@@H](Cc1ccc(-c2ccccc2)cc1)C(=O)O; Phe(3-Me) = Cc1cccc(C[C@H](N)C(=O)O)c1; X5 = CC(C)(CCN)[C@H](N[*:1])C(=O)[*:2]; Abu(3S-NH2) = C[C@H](N)[C@H](N)C(=O)O; NH(CH2)12COOH = O=C(O)CCCCCCCCCCCCN*; Val(3-OH) = CC(C)(O)[C@H](N)C(=O)O; Ala(cPr) = N[C@@H](CC1CC1)C(=O)O; 4Pal = N[C@@H](Cc1ccncc1)C(=O)O; Cha = N[C@@H](CC1CCCCC1)C(=O)O; Cba = N[C@@H](CC1CCC1)C(=O)O; Carboxymethyl = O=C(O)C*; Orn = NCCC[C@H](N)C(=O)O; Aun = NCCCCCCCCCCC(=O)O; Dab = NCC[C@H](N)C(=O)O; Dap = NC[C@H](N)C(=O)O; Ac3c = NC1(C(=O)O)CC1

Molecular target: T1, PD-1/PD-L1 interaction (PE-labeled human PD-L1-Ig binding to Jurkat cell line over-expressing human PD-1) (Homo sapiens, UniProt Q15116)
T1 construct: expressed in transfected cells; host or cells: Jurkat
T1 sequence (Q15116 25-288): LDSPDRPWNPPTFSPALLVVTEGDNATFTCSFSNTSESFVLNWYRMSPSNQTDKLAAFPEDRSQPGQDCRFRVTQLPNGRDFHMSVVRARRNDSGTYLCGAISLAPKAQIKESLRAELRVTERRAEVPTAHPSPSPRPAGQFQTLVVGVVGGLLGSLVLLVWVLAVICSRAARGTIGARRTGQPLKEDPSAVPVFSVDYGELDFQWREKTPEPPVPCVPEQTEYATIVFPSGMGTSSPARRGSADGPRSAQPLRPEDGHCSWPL
Assay: Jurkat-PD-1 Cell Binding High-Content Screening Assay (CBA)
Format: cell-based
Details: Jurkat cell line over-expressing human PD-1; PE-labeled PD-L1-Ig 20 nM final; read-out: Jurkat hPD1-PDL1 IC50
Method in brief: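 Jurkat cells over-expressing human PD-1 (8×10^3 per well, DMEM/10% FCS) preincubated with compound 2 h at 37° C, then PE-labeled human PD-L1-Ig (20 nM final) added for 1 h. Cells fixed with paraformaldehyde, Hoechst-stained, and bound fluorescence quantified by high-content imaging.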

| Compound | IC50 [nM] |
| --- | --- |
| Cc1cccc(C[C@@H]2NC(=O)[C@H](CC(=O)O)NC(=O)[C@H](Cc3ccc(OCC(=O)O)cc3)NC(=O)[C@H](CCCNC(=N)N)NC(=O)CSC[C@@H](C(=O)NC3(C(=O)NCCCCCCCCCCC(=O)O)CC3)NC(=O)[C@H]([C@@H](C)O)NC(=O)[C@H](C(C)C)NC(=O)[C@H](CC3CCC3)NC(=O)[C@H](CCN)NC(=O)[C@@H](CC(C)C)NC(=O)[C@H](CCCN)NC(=O)[C@H](Cc3ccc(OCC(=O)O)cc3)NC(=O)[C@H](Cc3ccc(-c4ccccc4)cc3)NC(=O)[C@H](Cc3ccc(OCC(=O)O)cc3)NC2=O)c1 [Compound 2164] ({CH2CO}-RY(Carboxymethyl)D[Phe(3-Me)]Y(Carboxymethyl)[Bip]Y(Carboxymethyl)[Orn][dL][Dab][Cba]VTC[Ac3c][Aun]-OH; thioether N-14) | 33.3 |
| Cc1cccc(C[C@@H]2NC(=O)[C@H](CC(=O)O)NC(=O)[C@H](Cc3ccc(C(=O)O)cc3)NC(=O)[C@H](CN)NC(=O)CSC[C@@H](C(=O)N[C@@H](CCN)C(=O)NCCCCCCCCCCC(=O)O)NC(=O)[C@H]([C@@H](C)O)NC(=O)[C@H](C(C)C)NC(=O)[C@H](CC3CCCCC3)NC(=O)[C@H](CCN)NC(=O)[C@@H](CC(C)C)NC(=O)[C@H](CCCN)NC(=O)[C@H](Cc3ccc(OCC(=O)O)cc3)NC(=O)[C@H](Cc3ccc(-c4ccccc4)cc3)NC(=O)[C@H](Cc3ccc(OCC(=O)O)cc3)NC2=O)c1 [Compound 2165] ({CH2CO}-[Dap][Phe(4-COOH)]D[Phe(3-Me)]Y(Carboxymethyl)[Bip]Y(Carboxymethyl)[Orn][dL][Dab][Cha]VTC[Dab][Aun]-OH; thioether N-14) | 21.8 |
| Cc1cccc(C[C@@H]2NC(=O)[C@H](CC(=O)O)NC(=O)[C@H](Cc3ccc(C(=O)O)cc3)NC(=O)[C@H](CCCNC(=N)N)NC(=O)CSC[C@@H](C(=O)N[C@@H](CCN)C(=O)NCCCCCCCCCCC(=O)O)NC(=O)[C@H]([C@@H](C)O)NC(=O)[C@H](C(C)C)NC(=O)[C@H](CC3CCCCC3)NC(=O)[C@H](CCN)NC(=O)[C@@H](CC(C)C)NC(=O)[C@H](CCCN)NC(=O)[C@H](Cc3ccc(OCC(=O)O)cc3)NC(=O)[C@H](Cc3ccc(-c4ccccc4)cc3)NC(=O)[C@H](Cc3ccc(OCC(=O)O)cc3)NC2=O)c1 [Compound 2166] ({CH2CO}-R[Phe(4-COOH)]D[Phe(3-Me)]Y(Carboxymethyl)[Bip]Y(Carboxymethyl)[Orn][dL][Dab][Cha]VTC[Dab][Aun]-OH; thioether N-14) | 11.8 |
| Cc1cccc(C[C@@H]2NC(=O)[C@H](CC(=O)O)NC(=O)[C@H](Cc3ccc(C(=O)O)cc3)NC(=O)[C@H](Cc3ccncc3)NC(=O)CSC[C@@H](C(=O)NC3(C(=O)NCCCCCCCCCCC(=O)O)CC3)NC(=O)[C@H]([C@@H](C)O)NC(=O)[C@H](C(C)C)NC(=O)[C@H](CC3CCCCC3)NC(=O)[C@H](CCN)NC(=O)[C@@H](CC(C)C)NC(=O)[C@H](CCCN)NC(=O)[C@H](Cc3ccc(OCC(=O)O)cc3)NC(=O)[C@H](Cc3ccc(-c4ccccc4)cc3)NC(=O)[C@H](Cc3ccc(OCC(=O)O)cc3)NC2=O)c1 [Compound 2167] ({CH2CO}-[4Pal][Phe(4-COOH)]D[Phe(3-Me)]Y(Carboxymethyl)[Bip]Y(Carboxymethyl)[Orn][dL][Dab][Cha]VTC[Ac3c][Aun]-OH; thioether N-14) | 9.4 |
| Cc1cccc(C[C@@H]2NC(=O)[C@H](CC(=O)O)NC(=O)[C@H](Cc3ccc(C(=O)O)cc3)NC(=O)[C@H](Cc3ccncc3)NC(=O)CSC[C@@H](C(=O)NC3(C(=O)NCCCCCCCCCCC(=O)O)CC3)NC(=O)[C@H]([C@@H](C)O)NC(=O)[C@H](C(C)C)NC(=O)[C@H](CC(C)C)NC(=O)[C@H](CCN)NC(=O)[C@@H](CC(C)C)NC(=O)[C@H](CCCN)NC(=O)[C@H](Cc3ccc(OCC(=O)O)cc3)NC(=O)[C@H](Cc3ccc(-c4ccccc4)cc3)NC(=O)[C@H](Cc3ccc(OCC(=O)O)cc3)NC2=O)c1 [Compound 2168] ({CH2CO}-[4Pal][Phe(4-COOH)]D[Phe(3-Me)]Y(Carboxymethyl)[Bip]Y(Carboxymethyl)[Orn][dL][Dab]LVTC[Ac3c][Aun]-OH; thioether N-14) | 26.7 |
| Cc1cccc(C[C@@H]2NC(=O)[C@H](CC(=O)O)NC(=O)[C@H](Cc3ccc(OCC(=O)O)cc3)NC(=O)[C@H](CCCNC(=N)N)NC(=O)CSC[C@@H](C(=O)N[C@@H](CCN)C(=O)NCCCCCCCCCCC(=O)O)NC(=O)[C@H]([C@@H](C)O)NC(=O)[C@H](C(C)C)NC(=O)[C@H](CC3CC3)NC(=O)[C@H](CCN)NC(=O)[C@@H](CC(C)C)NC(=O)[C@H](CCCN)NC(=O)[C@H](Cc3ccc(OCC(=O)O)cc3)NC(=O)[C@H](Cc3ccc(-c4ccccc4)cc3)NC(=O)[C@H](Cc3ccc(OCC(=O)O)cc3)NC2=O)c1 [Compound 2169] ({CH2CO}-RY(Carboxymethyl)D[Phe(3-Me)]Y(Carboxymethyl)[Bip]Y(Carboxymethyl)[Orn][dL][Dab][Ala(cPr)]VTC[Dab][Aun]-OH; thioether N-14) | 14.3 |
| Cc1cccc(C[C@@H]2NC(=O)[C@H](CC(=O)O)NC(=O)[C@H](Cc3ccc(OCC(=O)O)cc3)NC(=O)[C@H](CCCNC(=N)N)NC(=O)CSC[C@@H](C(=O)N[C@@H](CCN)C(=O)NCCCCCCCCCCC(=O)O)NC(=O)[C@H](CO)NC(=O)[C@H](C(C)(C)O)NC(=O)[C@H](CC3CCCCC3)NC(=O)[C@H](CCN)NC(=O)[C@@H](CC(C)C)NC(=O)[C@H](CCCN)NC(=O)[C@H](Cc3ccc(OCC(=O)O)cc3)NC(=O)[C@H](Cc3ccc(-c4ccccc4)cc3)NC(=O)[C@H](Cc3ccc(OCC(=O)O)cc3)NC2=O)c1 [Compound 2171] ({CH2CO}-RY(Carboxymethyl)D[Phe(3-Me)]Y(Carboxymethyl)[Bip]Y(Carboxymethyl)[Orn][dL][Dab][Cha][Val(3-OH)]SC[Dab][Aun]-OH; thioether N-14) | 4.6 |
| Cc1cccc(C[C@@H]2NC(=O)[C@H](CC(=O)O)NC(=O)[C@H](Cc3ccc(OCC(=O)O)cc3)NC(=O)[C@H](CN)NC(=O)CSC[C@@H](C(=O)N[C@H](C(=O)NCCCCCCCCCCC(=O)O)[C@H](C)N)NC(=O)[C@H](CO)NC(=O)[C@H](C(C)C)NC(=O)[C@H](CC3CCCCC3)NC(=O)[C@H](CCN)NC(=O)[C@@H](CC(C)C)NC(=O)[C@H](CCCN)NC(=O)[C@H](Cc3ccc(OCC(=O)O)cc3)NC(=O)[C@H](Cc3ccc(-c4ccccc4)cc3)NC(=O)[C@H](Cc3ccc(OCC(=O)O)cc3)NC2=O)c1 [Compound 2172] ({CH2CO}-[Dap]Y(Carboxymethyl)D[Phe(3-Me)]Y(Carboxymethyl)[Bip]Y(Carboxymethyl)[Orn][dL][Dab][Cha]VSC[Abu(3S-NH2)][Aun]-OH; thioether N-14) | 30.6 |
| Cc1cccc(C[C@@H]2NC(=O)[C@H](CC(=O)O)NC(=O)[C@H](Cc3ccc(OCC(=O)O)cc3)NC(=O)[C@H](CN)NC(=O)CSC[C@@H](C(=O)N[C@@H](CCN)C(=O)NCCCCCCCCCCC(=O)O)NC(=O)[C@H]([C@H](C)N)NC(=O)[C@H](C(C)C)NC(=O)[C@H](CC3CCCCC3)NC(=O)[C@H](CCN)NC(=O)[C@@H](CC(C)C)NC(=O)[C@H](CCCN)NC(=O)[C@H](Cc3ccc(OCC(=O)O)cc3)NC(=O)[C@H](Cc3ccc(-c4ccccc4)cc3)NC(=O)[C@H](Cc3ccc(OCC(=O)O)cc3)NC2=O)c1 [Compound 2173] ({CH2CO}-[Dap]Y(Carboxymethyl)D[Phe(3-Me)]Y(Carboxymethyl)[Bip]Y(Carboxymethyl)[Orn][dL][Dab][Cha]V[Abu(3S-NH2)]C[Dab][Aun]-OH; thioether N-14) | 55 |
| Cc1cccc(C[C@@H]2NC(=O)[C@H](CC(=O)O)NC(=O)[C@H](Cc3ccc(OCC(=O)O)cc3)NC(=O)[C@H](CN)NC(=O)CSC[C@@H](C(=O)N[C@@H](CCN)C(=O)NCCCCCCCCCCC(=O)O)NC(=O)[C@H](CO)NC(=O)[C@H]([C@H](C)N)NC(=O)[C@H](CC3CCCCC3)NC(=O)[C@H](CCN)NC(=O)[C@@H](CC(C)C)NC(=O)[C@H](CCCN)NC(=O)[C@H](Cc3ccc(OCC(=O)O)cc3)NC(=O)[C@H](Cc3ccc(-c4ccccc4)cc3)NC(=O)[C@H](Cc3ccc(OCC(=O)O)cc3)NC2=O)c1 [Compound 2174] ({CH2CO}-[Dap]Y(Carboxymethyl)D[Phe(3-Me)]Y(Carboxymethyl)[Bip]Y(Carboxymethyl)[Orn][dL][Dab][Cha][Abu(3S-NH2)]SC[Dab][Aun]-OH; thioether N-14) | 11.3 |
| Cc1cccc(C[C@@H]2NC(=O)[C@H](CC(=O)O)NC(=O)[C@H](Cc3ccc(OCC(=O)O)cc3)NC(=O)[C@H](CN)NC(=O)CSC[C@@H](C(=O)N[C@@H](CCN)C(=O)NCCCCCCCCCCC(=O)O)NC(=O)[C@H](CO)NC(=O)[C@H](C(C)(C)O)NC(=O)[C@H](CC3CCC3)NC(=O)[C@H](CCN)NC(=O)[C@@H](CC(C)C)NC(=O)[C@H](CCCN)NC(=O)[C@H](Cc3ccc(OCC(=O)O)cc3)NC(=O)[C@H](Cc3ccc(-c4ccccc4)cc3)NC(=O)[C@H](Cc3ccc(OCC(=O)O)cc3)NC2=O)c1 [Compound 2175] ({CH2CO}-[Dap]Y(Carboxymethyl)D[Phe(3-Me)]Y(Carboxymethyl)[Bip]Y(Carboxymethyl)[Orn][dL][Dab][Cba][Val(3-OH)]SC[Dab][Aun]-OH; thioether N-14) | 10.8 |
| Cc1cccc(C[C@@H]2NC(=O)[C@H](CC(=O)O)NC(=O)[C@H](Cc3ccc(OCC(=O)O)cc3)NC(=O)[C@H](C(C)(C)CCN)NC(=O)CSC[C@@H](C(=O)N[C@@H](CCN)C(=O)NCCCCCCCCCCCCC(=O)O)NC(=O)[C@H](CO)NC(=O)[C@H](C(C)(C)O)NC(=O)[C@H](CC3CCCCC3)NC(=O)[C@H](CCN)NC(=O)[C@@H](CC(C)C)NC(=O)[C@H](CCCN)NC(=O)[C@H](Cc3ccc(OCC(=O)O)cc3)NC(=O)[C@H](Cc3ccc(-c4ccccc4)cc3)NC(=O)[C@H](Cc3ccc(OCC(=O)O)cc3)NC2=O)c1 [Compound 2176] ({CH2CO}-[X5]Y(Carboxymethyl)D[Phe(3-Me)]Y(Carboxymethyl)[Bip]Y(Carboxymethyl)[Orn][dL][Dab][Cha][Val(3-OH)]SC[Dab]-{NH(CH2)12COOH}; thioether N-14) | 105 |
